pIC50: −log10 of the molar value.
How the values were obtained:
Type in all cases: cell-based
PC9 and PC9-GR cells = assay: MTT proliferation assay; details: both parental and T790M expressing PC9 cell lines; 10 μM NGI-1, 5 days
Method: (§1) The H1975 and A549 cell lines were purchased from ATCC (Manassas, Va.), the PC9 cell line was a gift from Katie Politi, and the HCC-827 and HCC-827-GR lines were gifts from Jeff Engelman (MGH, Boston Mass.). Cell lines were cultured in RPMI 1640+10% FBS supplemented with penicillin and streptomycin (Gibco, Life Technologies, Grand Island, N.Y., US) in a humidified incubator with 5% CO2, and they were kept in culture no more than 4 months after resuscitation from the original stocks. No additional authentication was performed. Mycoplasma cell culture contamination was routinely checked and ruled out using the MycoAlert Mycoplasma Detection Kit (Lonza, Rockland, Me. USA). To generate a TKI resistant cell lines, either PC9 or H1975 cells were exposed to increasing concentrations of gefitinib or osimertinib, respectively. Gefitinib or Osimertinib concentrations were increased stepwise when cells resumed growth kinetics similar to the untreated parental cells over a dose range from 10 to 500 nM. Resistant cell cultures were obtained ˜8-12 weeks after initiation of drug exposure. To confirm the emergence of a therapeutic resistant, MTT assays were performed after allowing the cells to grow in drug-free conditions for at least 4 days.
(§2) Growth rates were determined by CellTiter 96 NonRadioactive Cell Proliferation Assay (Promega; Madison, Wis., USA) according to the manufacturer's directions. Briefly, NSCLC cells (2×103) untreated or treated with 10 μM NGI-1, 100 nM Gefitinib, or 1 μM Osimertinib (Selleck Chemicals), were seeded in triplicate in 96-wells plates and grown in culture medium containing 10% serum. The media was changed with or without new inhibitor every 48 h. Cell numbers were estimated after 0, 3, and 5 days by adding MTT (3-(4,5-dimethylthiazol-2-yl)-2,5-diphenyltetrazolium bromide) reagent to the wells 4 h before taking the spectrophotometric reading (absorbance at 570 nm).

H1975 and H1975-OR cells = assay: MTT proliferation assay; details: both parental and H1975-OR cell lines; 10 μM NGI-1, 5 days
Method: as §1, §2

[1] = system: HCC827 and HCC827-GR cells; assay: MTT proliferation assay; details: both parental and HCC827-GR cells; 10 μM NGI-1, 5 days
Method: as §1, §2

BEN = assay: Lung cancer cell line viability screen; details: NSCLC, read-out: NGI-1 (IC50)
Method: (§3) NGI-1 activity was screened in 94 lung cancer cell lines at the Center for Molecular Therapeutics at the Massachusetts General Hospital Center for Cancer Research with previously described methods (Garnett et al., Nature, 483(7391):570-5 (2012)). Briefly, cells were treated in 384-well microplates using 9 serial NGI-1 dilutions, returned to an incubator for 96 hours, then stained with 55 μg/ml resazurin (Sigma) prepared in Glutathione-free media for 4 hours. Fluorescent signal intensity was quantified with a plate reader at excitation and emission wavelengths of 535/595 nm to determine viability. Viability ratio across the 9 doses were fitted to determine the half maximal inhibitory concentration (IC50).

RERF-LC-Sq1 = assay: Lung cancer cell line viability screen; details: RERF-LC-Sq1, NSCLC; read-out: NGI-1 (IC50)
Method: as §3

NCI-H2110 = assay: Lung cancer cell line viability screen; details: NCI-H2110, SCLC; read-out: NGI-1 (IC50)
Method: as §3

RERF-LC-MS = assay: Lung cancer cell line viability screen; details: NSCLC, read-out: NGI-1 (IC50)
Method: as §3

Calu-3 = assay: Lung cancer cell line viability screen; details: Homo sapiens; Calu-3, NSCLC, ErbB2 amplified; read-out: NGI-1 (IC50)
Method: as §3

EMC-BAC-1 = assay: Lung cancer cell line viability screen; details: EMC-BAC-1, NSCLC, ErBB3 Y523C; read-out: NGI-1 (IC50)
Method: as §3

LC-1F = assay: Lung cancer cell line viability screen; details: NSCLC, read-out: NGI-1 (IC50)
Method: as §3

PC-3 [JPC-3] = assay: Lung cancer cell line viability screen; details: NSCLC, EGFR 747-749 del, read-out: NGI-1 (IC50)
Method: as §3

A-427 = assay: Lung cancer cell line viability screen; details: Homo sapiens; A-427, NSCLC; read-out: NGI-1 (IC50)
Method: as §3

NCI-H1838 = assay: Lung cancer cell line viability screen; details: Homo sapiens; NCI-H1838, NSCLC, EGFR amplified; read-out: NGI-1 (IC50)
Method: as §3

MET, PDGFR and FGFR RTKs = assay: Western blot of MET, PDGFR and FGFR phosphorylation and levels in glioma cells
Method: In this study, the D54, SKMG3, U251, T98G and 42-MG glioma cell lines were used. The source of D54, SKMG3 and U251 cells has been described previously (Contessa at al., Clin Cancer Res., 16:3205-14 (2010), Lopez et al., Int J Radiat Oncol Biol Phys., 69:214-20 (2007)). The 42-MG and T98G cells were provided by Todd Waldman (Georgetown University) and Dr. Ranjit Bindra (Yale University), respectively. The cells were cultured in DMEM/F12 (D54 and T98G), DMEM (42-MG and U251) or RPMI 1640 (SKMG3)+10% FBS supplemented with penicillin and streptomycin (Gibco, Life Technologies, Grand Island, N.Y., US) in a humidified incubator with 5% CO2, and they were kept in culture no more than 6 months after resuscitation from the original stocks. […] Mycoplasma cell culture contamination was routinely checked and ruled out using a biochemical test (MycoAlert Mycoplasma Detection Kit from Lonza, Rockland, Me. USA). Tunicamycin was purchased from Calbiochem/EMD-millipore (Burlington, Mass., USA). Cetuximab and Erlotinib were purchased at Selleck Chemicals LLC (Houston, Tex., USA). Luciferin was supplied by Promega (Madison, Wis. USA). For in vitro experiments, radiation (XRT) was administered at room temperature using a Precision X-ray 320-kV orthovoltage unit at a dose rate of 2 Gy/45 seconds (PXI X-Ray Systems) with 2 mm aluminum filter. For in vivo studies, radiation was administered at room temperature using a Precision X-ray 250-kV orthovoltage unit at a dose rate of 6.42 Gy/min (PXI X-Ray Systems) with 2 mm aluminum filter. Quality Assurance for both irradiators was performed monthly using a P.T.W. 0.3 cm^3 Ionization Chamber calibrated to NIST standards and quarterly dosimetry using thermoluminescent dosimeter (TLD)-based or ferrous sulfate-based dosimeters.

## Cc1cnc(NC(=O)c2cc(S(=O)(=O)N(C)C)ccc2N2CCCC2)s1 [NGI-1, 5-(dimethylsulfamoyl)-N-(5-methyl-1,3-thiazol-2-yl)-2-(pyrrolidin-1-yl)benzamide]
PC9 and PC9-GR cells
  reduction of proliferation: ~90%
H1975 and H1975-OR cells
  reduction of proliferation: more than 70%
[1]
  reduction of proliferation: 80%
BEN
  pIC50: 5.01
RERF-LC-Sq1
  pIC50: 5.13
NCI-H2110
  pIC50: 5.05
RERF-LC-MS
  pIC50: 5.09
Calu-3
  pIC50: 5.06
EMC-BAC-1
  pIC50: 5.39
LC-1F
  pIC50: 5.10
PC-3 [JPC-3]
  pIC50: 5.31
A-427
  pIC50: 5.31
NCI-H1838
  pIC50: 5.37
MET, PDGFR and FGFR RTKs; 42-MG, SKMG3, and T98G cells
  phosphorylation of PDGFR: uniformly reduced
MET, PDGFR and FGFR RTKs; D54, SKMG3, U251, and T98G cells
  phosphorylation of MET: uniformly reduced phosphorylation
MET, PDGFR and FGFR RTKs; glioma cell lines
  FGFR1 levels: increased
  FGFR1 receptor phosphorylation: not accompanied by an increase in receptor phosphorylation

Reference: US10765638B2, “Particle formulation with polycation complex” (Yale University, priority 2017, dated 2020)
